In patent US8506930B2, “Compounds having affinity for amyloid” (Nihon Medi-Physics Co., Ltd., priority 2006, dated 2013):

What was measured:
[1] = target: T1, amyloid (aggregated Aβ1-40) (Homo sapiens, UniProt P05067); assay: Measurement of binding to amyloid (radiolabelled compound, glass fiber filtration); settings: amyloid 2.5-1000 nmol/L, 22° C., 3 hours
T1 construct: Aβ1-40 (Peptide Institute, INC.) was dissolved in phosphate buffer (pH 7.4); purchased Peptide Institute, INC
Protocol: (7) A relation between the amount of the Compound I-6 binding to amyloid and the amount of added amyloid was evaluated from the measurement results of (6). Unspecific binding was determined using a sample to which the Compound I-2 (non-RI labeled compound) was added to become 100 nM (at a final concentration) above in (4) (Example I-7).
(8) Using [^125I]-IMPY synthesized in the above Reference Example I-6, the same procedure as the above (2) to (6) were carried out to obtain control data (Comparative Example I-1).
A relation between the concentration of amyloid in the sample solution and the radioactive count on the glass fiber filter measured above in (6) is shown in FIG. 1-11. The radioactivity on the glass fiber was increased proportionally to the concentration (addition amount) of amyloid (Example I-7). […] Therefore, the radioactive count on the glass fiber is a value reflecting the amount of the compound attached to amyloid, and the slope of the graph which plotted the radioactive count relative to the concentration of amyloid is a value which can be an index representing the intensity of binding to amyloid.

[2] = Transferability into brain and clearance, Examples I-20 to I-21; assay type: in vivo, male Wistar rats; settings: rats, intravenous injection, Table 1-7
Description: Three animals were used for Experiment I-20 and Comparative Experiment I-9, and two animals were used for Experiment I-21 at the respective time points.

[3] = target: T2, intracerebral amyloid (aggregated Aβ1-40 injected into amygdaloid nucleus) (Homo sapiens, UniProt P05067); assay: Confirmation of imaging of amyloid in brain (ex vivo autoradiogram), Example I-22; parameters: species or system male Wistar rat; settings: brain slice 60 minutes after tail vein injection
T2 construct: Aβ1-40 (Peptide Institute, INC.) was dissolved in phosphate buffer (pH 7.4); purchased Peptide Institute, INC
T2 sequence (P05067 672-711): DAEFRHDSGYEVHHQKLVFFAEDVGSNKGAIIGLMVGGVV
Protocol: (§1) (1) Aβ1-40 (manufactured by Peptide Institute, INC.) was dissolved in phosphate buffer (pH 7.4) and shaken at 37° C. for 72 hours, to obtain 1 mg/mL of a suspension of aggregated Aβ (hereinafter referred to as amyloid suspension in this Example).
(§2) (2) 25 μL (corresponding to 25 μg) of the amyloid suspension was injected into an amygdaloid nucleus on one side of a male Wistar rat (7-week old). As a control, 25 μL of a phosphate buffered physiological saline solution (pH 7.4) was injected into an amygdaloid nucleus on the other side of the rat. The rats were examined 1 day after the injection of the amyloid suspension and the phosphate buffered physiological saline solution (pH 7.4).
(§3) This solution was injected into the rat through the tail vein (dosage: 0.5 mL, dosed radioactivity: 16 MBq equivalent).
(§4) (4) Brain was removed 60 minutes after the injection to prepare a brain slice of 10 μm in thickness with a microtome (type: CM3050S, manufactured by LEICA). The brain slice was exposed to an imaging plate for 20 hours, and then image analysis was carried out by use of a Bio-imaging Analyzer (type: BAS-2500; manufactured by FUJIFILM Corporation).

[4] = test system: intracerebral amyloid (aggregated Aβ1-40 injected into amygdaloid nucleus); assay: as above; parameters: species or system male Wistar rat; settings: brain slice 60 minutes after tail vein injection
Protocol: as §1, §2, §3, §4

[5] = Transferability into brain and clearance (2), Example I-30; assay type: in vivo, male Wistar rats; settings: rats, intravenous injection, Table 1-10
Protocol: 0.05 mL each of these solutions was injected under thiopental anesthesia into the tail vein of respective Wistar rats (7-week old). The rats were sacrificed by bleeding from abdominal artery, and brains were removed and subjected to measurement of mass of brains and further subjected to measurement of radioactivity (hereinafter referred to as A in this Example) with a single channel analyzer (detector type: SP-20 manufactured by OHYO KOKEN KOGYO Co., Ltd.) 2, 5, 30 and 60 minutes after the injection. Also, radioactivity (hereinafter referred to as B in this Example) of the rest of the whole body was measured in the same manner as above. Using these measurement results, radioactive distribution per unit weight of brain (% ID/g) at the respective time points were calculated in accordance with the following formula (1-7).
Three animals were used for experiment at the respective time points.

[6] = test system: intracerebral amyloid (aggregated Aβ1-42 injected into amygdaloid nucleus); assay: Confirmation of imaging of amyloid in brain (ex vivo autoradiogram), Example I-31; parameters: species or system male Wistar rat
Protocol: (§5) (1) Aβ1-42 (Wako) was dissolved in phosphate buffer (pH 7.4) and shaken at 37° C. for 72 hours, to obtain a 1 mg/mL suspension of aggregated Aβ (hereinafter referred to as amyloid suspension in this Example).
(§6) (2) 2.5 μL (corresponding to 25 μg) of the amyloid suspension was injected into an amygdaloid nucleus on one side of a male Wistar rat (7-week old). As a control, 2.5 μL of a phosphate buffered physiological saline solution (pH 7.4) was injected into an amygdaloid nucleus on the other side of the rat. The rats were examined 1 day after the injection of the amyloid suspension and the phosphate buffered physiological saline solution (pH 7.4).
(§7) This solution was injected under thiopental anesthesia into the rat through the tail vein (dosage: 0.5 mL, dosed radioactivity: 11-15 MBq equivalent).
as §4

[7] = target: T3, intracerebral amyloid (aggregated Aβ1-42 injected into amygdaloid nucleus) (Homo sapiens, UniProt P05067); assay: as above; parameters: species or system male Wistar rat; settings: brain slice 60 minutes after tail vein injection
T3 construct: Aβ1-42 (Wako) was dissolved in phosphate buffer (pH 7.4); purchased Wako
T3 sequence (P05067 672-713): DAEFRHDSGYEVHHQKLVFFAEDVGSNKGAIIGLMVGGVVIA
Protocol: as §5, §6, §7, §4

[8] = Partition coefficient based on the octanol extraction method, Examples II-20 to II-21; assay type: physicochemical; settings: octanol / 10 mmol/L phosphate buffer (pH 7.4); Table 2-6
Protocol: To 2 mL of octanol, 10 μL each of the prepared sample solution was added, and 2 mL of 10 mmol/L phosphate buffer (pH 7.4) was further added, followed by stirring for 30 seconds. After the mixture was centrifuged with a low-speed centrifuge (2000 rpm×60 min.), the octanol layer and the water layer were sampled each in an amount of 1 mL, and subjected to measurement of radioactivity count with an autowell gamma system (Type: ARC-301B, manufactured by Aloka). Using the obtained radioactivity count, log Poctanol was calculated in accordance with the equation (2-4).

[9] = Transferability into brain and clearance, Examples II-22 to II-23; assay type: in vivo, male Wistar rats; settings: rats, intravenous injection, Table 2-7
Protocol: 0.05 mL each of the prepared sample solutions was injected under thiopental anesthesia into the tail vein of the respective Wistar rat (7-week old). The rats were sacrificed by bleeding from abdominal artery, and brains were removed and subjected to measurement of mass of brains and further subjected to measurement of radioactivity (hereinafter referred to as A in this Example) with a single channel analyzer (detector type SP-20 manufactured by OHYO KOKEN KOGYO Co., Ltd.) 2, 5, 30, and 60 minutes after the injection. Further, the radioactivity level of the rest of the whole body was measured in the same manner as above (hereinafter referred to as B in this Example). Using these measurement results, radioactive distribution per unit weight of brain (% ID/g) at the respective time points were calculated in accordance with the following formula (2-5).
(§8) Three animals were used for the experiment at the respective time points.

[10] = test system: intracerebral amyloid (aggregated Aβ1-42 injected into amygdaloid nucleus); assay: Confirmation of imaging of amyloid in brain (ex vivo autoradiogram), Examples II-24 to II-25; parameters: species or system male Wistar rat; settings: for accumulation of radioactivity at sites other than the site to which amyloid was injected: autoradiogram, 60 minutes after tail vein injection; for accumulation of radioactivity in amygdaloid nucleus on the side to which the physiological saline solution was injected: brain slice 60 minutes after tail vein injection
Protocol: as §6, §7, §4

[11] = target: T3, intracerebral amyloid (aggregated Aβ1-42 injected into amygdaloid nucleus); assay: as above; parameters: species or system male Wistar rat; settings: brain slice 60 minutes after tail vein injection
Protocol: as §6, §7, §4

[12] = Partition coefficient based on HPLC; assay type: physicochemical; settings: 50 mM triethylamine phosphate (pH 7.2)/acetonitrile=40/60; log PHPLC=0.96(log10K′HPLC)+1.59
Protocol: The partition coefficient by HPLC (hereinafter referred to as log PHPLC) was measured by the following method.
First, compounds for evaluation shown in Table 1-5 were dissolved at a concentration of 1 mg/mL in methanol containing 10% dimethylsulfoxide to prepare sample solutions. One μL of the sample solution was subjected to HPLC analysis under the following conditions to determine the elution time (t0) of the solvent and the elution time (tR) of each compound. […]
Using the obtained t0 and tR, the retention factor (hereinafter referred to as K′HPLC value) of each compound for evaluation was determined according to the following calculation formula (1-3). […]
After the individual solutions were stirred for 30 seconds, the solutions were centrifuged at 2,000 rpm for 60 minutes. 1 mL each of the octanol phase and the water phase was fractionated, and the radioactivity was measured by an autowell gamma system (manufactured by Aloka Co., Ltd.: Type ARC-301B). Based on the obtained radioactivity, log Poctanol values were calculated according to the above equation (1-2). […]
Using K′HPLC obtained for each compound for evaluation, the log PHPLC value of each compound for evaluation was determined according to the above calculation formula (1-4).

[13] = International Publication WO03/106439 pamphlet; cited from earlier work
[14] = rats, [11C]-labeled; cited from earlier work
[15] = Partition coefficient based on the octanol extraction method, Example I-29; assay type: physicochemical; settings: octanol / 10 mmol/L phosphate buffer (pH 7.4); Table I-9
Protocol: To 2 mL of octanol, 10 μL each of the prepared sample solutions was added, and 2 mL of a 10 mmol/L phosphate buffer (pH 7.4) was further added, followed by stirring for 30 seconds.

[16] = target: T2, intracerebral amyloid (aggregated Aβ1-40 injected into amygdaloid nucleus); assay: Ex vivo autoradiogram of 123I-IMPY using rats of amyloid injected model, Comparative Example II-6; assay type: in vivo, male Wistar rat; settings: brain slice 60 minutes after tail vein injection
Protocol: as §1, §6
(§9) This solution was injected under thiopental anesthesia into the rat through the tail vein (dosage: 0.5 mL, dosed radioactivity: 14.5 MBq equivalent).
as §4

[17] = test system: intracerebral amyloid (aggregated Aβ1-40 injected into amygdaloid nucleus); assay: as above; assay type: in vivo, male Wistar rat; settings: autoradiogram, 60 minutes after tail vein injection
Protocol: as §1, §6, §9, §4

[18] = Partition coefficient based on the octanol extraction method, Examples II-8 to II-9; assay type: physicochemical; settings: octanol / 10 mmol/L phosphate buffer (pH 7.4); Table 2-4
Protocol: To 2 mL of octanol, 10 μL each of the prepared sample solutions was added, 2 mL of 10 mmol/L phosphate buffer (pH 7.4) was added, followed by stirring for 30 seconds. After the mixture was centrifuged with a low-speed centrifuge (2000 rpm×60 min.), the octanol layer and the water layer were sampled each in an amount of 1 mL, and subjected to measurement of radioactivity count with an autowell gamma system (Type: ARC-301B, manufactured by Aloka). Using the obtained radioactivity count, log Poctanol was calculated in accordance with the equation (2-2).

[19] = Partition coefficient based on the octanol extraction method, Examples I-13 to I-14; assay type: physicochemical; settings: octanol / 10 mmol/L phosphate buffer (pH 7.4); Table 1-4
Protocol: After the mixture was centrifuged with a low-speed centrifuge (2000 rpm×60 min.), the octanol layer and the water layer were sampled each in an amount of 1 mL, and subjected to measurement of radioactivity count with an autowell gamma system (manufactured by Aloka, Type: ARC-301B). Using the obtained radioactivity count, log Poctanol was calculated in accordance with the equation (1-2).

[20] = Transferability into brain and clearance, Examples II-10 to II-11; assay type: in vivo, male Wistar rats; settings: rats, intravenous injection, Table 2-5
Protocol: 0.05 mL each of the prepared sample solutions was injected under thiopental anesthesia into the tail vein of the rats. The rats were sacrificed by bleeding from abdominal artery, and brains were removed and subjected to measurement of mass of brains and further subjected to measurement of radioactivity (hereinafter referred to as A in this Example) with a single channel analyzer (detector type SP-20 manufactured by OHYO KOKEN KOGYO Co., Ltd.) 2, 5, 30, and 60 minutes after the injection. Further, the radioactivity level of the rest of the whole body was measured in the same manner as above (hereinafter referred to as B in this Example). Using these measurement results, radioactive distribution per unit weight of brain (% ID/g) at the respective time points were calculated in accordance with the following formula (2-3).
as §8

T1 sequence (P05067 672-711 limits assumed): as the sequence (P05067 672-711) above

FCCCOc1ccc(-c2cn3cc([125I])ccc3n2)cc1 [Compound I-6, 2-[4′-(3″-fluoropropoxy)phenyl]-6-[^125I]iodoimidazo[1,2-a]pyridine]
slope of radioactive count on the glass fiber relative to the concentration of amyloid (index of intensity of binding to amyloid) [1]: greater than the slope for [^125I]-IMPY

FCCCOc1ccc(-c2cn3cc([123I])ccc3n2)cc1 [Compound I-7, 2-[4′-(3″-fluoropropoxy)phenyl]-6-[^123I]iodoimidazo[1,2-a]pyridine]
Radioactive distribution in brain per unit weight, After 2 min. [2]: 1.10 % ID/g
Radioactive distribution in brain per unit weight, After 5 min. [2]: 0.75 % ID/g
Radioactive distribution in brain per unit weight, After 30 min. [2]: 0.12 % ID/g
Radioactive distribution in brain per unit weight, After 60 min. [2]: 0.05 % ID/g
accumulation of radioactivity in amygdaloid nucleus on the side to which the amyloid suspension was injected [3]: marked accumulation of radioactivity
accumulation of radioactivity in amygdaloid nucleus on the side to which the physiological saline solution was injected [4]: no significant accumulation of radioactivity

FCCOc1ccc(-c2cn3cc([123I])ccc3n2)cc1 [Compound I-9, 2-[4′-(2″-fluoroethoxy)phenyl]-6-[^123I]iodoimidazo[1,2-a]pyridine]
Radioactive distribution in brain per unit weight, After 2 min. [5]: 0.72 % ID/g
Radioactive distribution in brain per unit weight, After 5 min. [5]: 0.49 % ID/g
Radioactive distribution in brain per unit weight, After 30 min. [5]: 0.07 % ID/g
Radioactive distribution in brain per unit weight, After 60 min. [5]: 0.02 % ID/g
accumulation of radioactivity at sites other than the sites to which amyloid was injected ([6]; autoradiogram, 60 minutes after tail vein injection): little accumulation of radioactivity
accumulation of radioactivity in amygdaloid nucleus on the side to which the physiological saline solution was injected ([6]; brain slice 60 minutes after tail vein injection): no significant accumulation of radioactivity
accumulation of radioactivity in amygdaloid nucleus on the side to which the amyloid suspension was injected [7]: marked accumulation of radioactivity

OCCOc1cccc(-c2cn3cc([123I])ccc3n2)c1 [Compound II-4, 2-[3′-(2″-hydroxyethoxy)phenyl]-6-[^123I]iodoimidazo[1,2-a]pyridine]
logPoctanol value [8]: 2.5
Radioactive distribution in brain per unit weight, After 2 min. [9]: 0.56 % ID/g
Radioactive distribution in brain per unit weight, After 5 min. [9]: 0.28 % ID/g
Radioactive distribution in brain per unit weight, After 30 min. [9]: 0.04 % ID/g
Radioactive distribution in brain per unit weight, After 60 min. [9]: 0.01 % ID/g
accumulation of radioactivity at sites other than the site to which amyloid was injected [10]: little accumulation of radioactivity
accumulation of radioactivity in amygdaloid nucleus on the side to which the physiological saline solution was injected [10]: no significant accumulation of radioactivity
accumulation of radioactivity in amygdaloid nucleus on the side to which the amyloid suspension was injected [11]: marked accumulation of radioactivity

OCCCOc1ccc(-c2cn3cc([123I])ccc3n2)cc1 [Compound II-6, 2-[4′-(3″-hydroxypropoxy)phenyl]-6-[^123I]iodoimidazo[1,2-a]pyridine]
logPoctanol value [8]: 2.1
Radioactive distribution in brain per unit weight, After 2 min. [9]: 0.81 % ID/g
Radioactive distribution in brain per unit weight, After 5 min. [9]: 0.56 % ID/g
Radioactive distribution in brain per unit weight, After 30 min. [9]: 0.07 % ID/g
Radioactive distribution in brain per unit weight, After 60 min. [9]: 0.02 % ID/g
accumulation of radioactivity at sites other than the site to which amyloid was injected [10]: little accumulation of radioactivity
accumulation of radioactivity in amygdaloid nucleus on the side to which the physiological saline solution was injected [10]: no significant accumulation of radioactivity
accumulation of radioactivity in amygdaloid nucleus on the side to which the amyloid suspension was injected [11]: marked accumulation of radioactivity

CN(C)c1ccc(-c2cn3cc(I)ccc3n2)cc1 [IMPY, 6-iodo-2-[4′-(N,N-dimethylamino)phenyl]imidazo[1,2-a]pyridine]
logPHPLC value [12]: 2.1
reverse mutation test result [13]: positive

CNc1ccc(/C=C/c2ccc(O)cc2)cc1 [SB-13, (E)-4-methylamino-4′-hydroxystilbene]
clearance from normal tissues [14]: it cannot be said that the clearance is sufficiently fast

CN(C)c1ccc(-c2cn3cc([123I])ccc3n2)cc1 [[^123I]-IMPY, reference compound]
Radioactive distribution in brain per unit weight, After 2 min. [5]: 1.19 % ID/g
Radioactive distribution in brain per unit weight, After 5 min. [5]: 0.97 % ID/g
Radioactive distribution in brain per unit weight, After 30 min. [5]: 0.23 % ID/g
Radioactive distribution in brain per unit weight, After 60 min. [5]: 0.09 % ID/g
logPoctanol value [8]: 2.1
logPoctanol value [15]: 2.1
Radioactive distribution in brain per unit weight, After 2 min. [9]: 1.19 % ID/g
Radioactive distribution in brain per unit weight, After 5 min. [9]: 0.97 % ID/g
Radioactive distribution in brain per unit weight, After 30 min. [9]: 0.23 % ID/g
Radioactive distribution in brain per unit weight, After 60 min. [9]: 0.09 % ID/g
Radioactive distribution in brain per unit weight, After 2 min. [2]: 1.02 % ID/g
Radioactive distribution in brain per unit weight, After 5 min. [2]: 0.99 % ID/g
Radioactive distribution in brain per unit weight, After 30 min. [2]: 0.20 % ID/g
Radioactive distribution in brain per unit weight, After 60 min. [2]: 0.08 % ID/g
accumulation of radioactivity in amygdaloid nucleus on the side to which the amyloid suspension was injected [16]: marked accumulation of radioactivity
accumulation of radioactivity where amyloid was not injected (white matter) [17]: non-specific accumulation was observed in white matter
logPoctanol value [18]: 1.9
logPoctanol value [19]: 2.1
Radioactive distribution in brain per unit weight, After 2 min. ([20]; 2 min.): 1.19 % ID/g
Radioactive distribution in brain per unit weight, After 5 min. ([20]; 5 min.): 0.97 % ID/g
Radioactive distribution in brain per unit weight, After 30 min. ([20]; 30 min.): 0.23 % ID/g
Radioactive distribution in brain per unit weight, After 60 min. ([20]; 60 min.): 0.09 % ID/g
